Laboratory results published in patent US20240287076A1, “COMPOUNDS FOR TARGETING DEGRADATION OF BRUTON'S TYROSINE KINASE” (BIOGEN MA INC., priority 2021, published 2024).

biological target: T1, BTK (Homo sapiens, UniProt Q06187); assay: BTK degradation assay using the HiBiT Method (Nano-Glo HiBiT Lytic Assay, GM01501.3 cells); type: cell-based; settings: HiBiT Degradation on GM01501.3 BTK @ 6 hours
T1 construct: The GM01501.3 cell line endogenously expresses BTK with a HiBiT fusion tag via CRISPR knock-in at its C-terminal region; endogenous in cells; host or cells: GM01501.3 (GM01501 cells engineered by CRISPR knock-in of HiBiT at the BTK locus)
T1 sequence (Q06187 whole entry, the tested form may be a part): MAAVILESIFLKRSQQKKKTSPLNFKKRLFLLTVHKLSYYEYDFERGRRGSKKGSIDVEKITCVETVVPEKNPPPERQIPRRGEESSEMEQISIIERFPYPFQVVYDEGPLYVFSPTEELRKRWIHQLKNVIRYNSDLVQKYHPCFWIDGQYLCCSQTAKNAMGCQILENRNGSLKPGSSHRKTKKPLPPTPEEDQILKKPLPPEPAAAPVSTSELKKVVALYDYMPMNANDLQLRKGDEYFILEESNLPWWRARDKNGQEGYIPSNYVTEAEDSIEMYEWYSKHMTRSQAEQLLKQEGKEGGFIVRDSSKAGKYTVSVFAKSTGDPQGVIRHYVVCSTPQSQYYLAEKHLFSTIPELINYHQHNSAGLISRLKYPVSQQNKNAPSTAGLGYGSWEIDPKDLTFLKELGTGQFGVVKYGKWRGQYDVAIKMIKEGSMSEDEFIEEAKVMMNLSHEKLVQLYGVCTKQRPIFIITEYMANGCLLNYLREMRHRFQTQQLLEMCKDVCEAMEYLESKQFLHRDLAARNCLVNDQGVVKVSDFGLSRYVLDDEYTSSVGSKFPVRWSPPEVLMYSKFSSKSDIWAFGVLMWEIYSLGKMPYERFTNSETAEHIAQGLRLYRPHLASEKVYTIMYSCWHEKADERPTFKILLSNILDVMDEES
In short: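 CRISPR knock-in GM01501.3 cells expressing endogenous BTK with C-terminal HiBiT tag, treated 6 h at 37 °C with compounds, 11-point half-log titration from 10 μM top, duplicates. Remaining BTK quantified by Nano-Glo HiBiT lytic luminescence versus DMSO controls; DC50 reported.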

| SMILES | DC50 [nM] |
| --- | --- |
| Cc1cc(-c2ncnn3cc(-c4ccc(CN5CCC(c6ccc(NC7CCC(=O)NC7=O)cc6C(F)(F)F)CC5)cc4)cc23)ccc1CNC(=O)c1noc(C(C)(C)C)n1 (stereo not drawn) [Example 27, 5-tert-butyl-N-[[4-[6-[4-[[4-[4-[(2,6-dioxo-3-piperidyl)amino]-2-(trifluoromethyl)phenyl]-1-piperidyl]methyl]phenyl]pyrrolo[2,1-f][1,2,4]triazin-4-yl]-2-methyl-phenyl]methyl]-1,2,4-oxadiazole-3-carboxamide] | < 100 |
| Cc1cc(-c2ncnn3cc(CC[C@@H](F)CN4CCN(c5ccc(C6CCC(=O)NC6=O)cn5)CC4)cc23)ccc1CNC(=O)c1noc(C(C)(C)C)n1 (single isomer, unassigned) [Example 287] | < 100 |
| Cc1cc(-c2ncnn3cc(-c4ccc(CN5CCC(c6ccc(NC7CCC(=O)NC7=O)cc6)CC5)cc4)cc23)ccc1CNC(=O)c1ccc(F)c(F)c1 (stereo not drawn) [Example 65, N-[[4-[6-[4-[[4-[4-[(2,6-dioxo-3-piperidyl)amino]phenyl]-1-piperidyl]methyl]phenyl]pyrrolo[2,1-f][1,2,4]triazin-4-yl]-2-methyl-phenyl]methyl]-3,4-difluoro-benzamide] | < 100 |
| Cn1nc(N2CCC(=O)NC2=O)c2ccc(C3CCN(Cc4ccc(-c5cc6c(-c7ccc(CNC(=O)c8noc(C(C)(C)C)n8)c(F)c7)ncnn6c5)cn4)CC3)cc21 [Example 244, 5-(tert-butyl)-N-(4-(6-(6-((4-(3-(2,4-dioxotetrahydropyrimidin-1(2H)-yl)-1-methyl-1H-indazol-6-yl)piperidin-1-yl)methyl)pyridin-3-yl)pyrrolo[2,1-f][1,2,4]triazin-4-yl)-2-fluorobenzyl)-1,2,4-oxadiazole-3-carboxamide] | < 100 |
| Cc1cc(-c2ncnn3cc(CCCCN4CCC(c5ccc6c(N7CCC(=O)NC7=O)nn(C)c6c5)CC4)cc23)ccc1CNC(=O)c1cc(C(C)(C)C)no1 [Example 280, 3-(tert-butyl)-N-(4-(6-(4-(4-(3-(2,4-dioxotetrahydropyrimidin-1(2H)-yl)-1-methyl-1H-indazol-6-yl)piperidin-1-yl)butyl)pyrrolo[2,1-f][1,2,4]triazin-4-yl)-2-methylbenzyl)isoxazole-5-carboxamide] | < 100 |
| Cc1cc(-c2ncnn3cc(-c4ccc(C(=O)NCCc5ccc(NC6CCC(=O)NC6=O)cc5)cc4)cc23)ccc1CNC(=O)c1noc(C(C)(C)C)n1 (stereo not drawn) [Example 198, 5-(tert-butyl)-N-(4-(6-(4-((4-((2,6-dioxopiperidin-3-yl)amino)phenethyl)carbamoyl)phenyl)pyrrolo[2,1-f] [1,2,4]triazin-4-yl)-2-methylbenzyl)-1,2,4-oxadiazole-3-carboxamide] | < 100 |
| Cc1cc(-c2ncnn3cc(N4CCN(C(=O)C5CCOC5CNC(=O)c5ccc(OC6CCC(=O)NC6=O)cc5)CC4)cc23)ccc1CNC(=O)c1noc(C(C)(C)C)n1 (stereo not drawn) [Example 187, 5-(tert-butyl)-N-(4-(6-(4-(2-((4-((2,6-dioxopiperidin-3-yl)oxy)benzamido)methyl)tetrahydrofuran-3-carbonyl)piperazin-1-yl)pyrrolo[2,1-f][1,2,4]triazin-4-yl)-2-methylbenzyl)-1,2,4-oxadiazole-3-carboxamide] | < 100 |
| Cc1cc(-c2ncnn3cc(CCN4CCC(c5ccc(NC6CCC(=O)NC6=O)cc5)C(F)(F)C4)cc23)ccc1CNC(=O)c1noc(C(C)(C)C)n1 (stereo not drawn) [Example 275, 5-(tert-butyl)-N-(4-(6-(2-(4-(4-((2,6-dioxopiperidin-3-yl)amino)phenyl)-3,3-difluoropiperidin-1-yl)ethyl)pyrrolo[2,1-f][1,2,4]triazin-4-yl)-2-methylbenzyl)-1,2,4-oxadiazole-3-carboxamide] | < 100 |
| Cc1cc(-c2ncnn3cc(-c4cccc(CN5CCC(c6ccc7c(N8CCC(=O)NC8=O)nn(C)c7c6)CC5)n4)cc23)ccc1CNC(=O)c1noc(C(C)(C)C)n1 [Example 248, 5-(tert-butyl)-N-(4-(6-(6-((4-(3-(2,4-dioxotetrahydropyrimidin-1(2H)-yl)-1-methyl-1H-indazol-6-yl)piperidin-1-yl)methyl)pyridin-2-yl)pyrrolo[2,1-f][1,2,4]triazin-4-yl)-2-methylbenzyl)-1,2,4-oxadiazole-3-carboxamide] | < 100 |
| Cc1cc(-c2ncnn3cc(N4CCN(C(=O)CC5CC(NC(=O)c6ccc(OC7CCC(=O)NC7=O)cc6)C5)CC4)cc23)ccc1CNC(=O)c1noc(C(C)(C)C)n1 (stereo not drawn) [Example 175, 5-(tert-butyl)-N-(4-(6-(4-(2-(3-(4-((2,6-dioxopiperidin-3-yl)oxy)benzamido)cyclobutyl)acetyl)piperazin-1-yl)pyrrolo[2,1-f][1,2,4]triazin-4-yl)-2-methylbenzyl)-1,2,4-oxadiazole-3-] | 100 to 500 |
| Cc1cc(-c2ncnn3cc(-c4cccc(C(C)CN5CCC(c6ccc(C7CCC(=O)NC7=O)cc6)CC5)c4)cc23)ccc1CNC(=O)c1noc(C(C)(C)C)n1 (stereo not drawn) [Example 207, 5-(tert-butyl)-N-(4-(6-(3-(1-(4-(4-(2,6-dioxopiperidin-3-yl)phenyl)piperidin-1-yl)propan-2-yl)phenyl)pyrrolo[2,1-f][1,2,4]triazin-4-yl)-2-methylbenzyl)-1,2,4-oxadiazole-3-carboxamide] | < 100 |
| Cc1cc(-c2ncnn3cc(-c4ccc(CN5CCC(c6ccc(NC7CCC(=O)NC7=O)cc6)CC5)cc4)cc23)ccc1CNC(=O)c1cc2ccccc2s1 (stereo not drawn) [Example 77, N-[[4-[6-[4-[[4-[4-[(2,6-dioxo-3-piperidyl)amino]phenyl]-1-piperidyl]methyl]phenyl]pyrrolo[2,1-f][1,2,4]triazin-4-yl]-2-methyl-phenyl]methyl]benzothiophene-2-carboxamide] | < 100 |
| Cc1cc(-c2ncnn3cc(N4CCN(C(=O)c5cn(CCNC(=O)c6ccc(OC7CCC(=O)NC7=O)cc6)nn5)CC4)cc23)ccc1CNC(=O)c1noc(C(C)(C)C)n1 (stereo not drawn) [Example 177, 5-(tert-butyl)-N-(4-(6-(4-(1-(2-(4-((2,6-dioxopiperidin-3-yl)oxy)benzamido)ethyl)-1H-1,2,3-triazole-4-carbonyl)piperazin-1-yl)pyrrolo[2,1-f][1,2,4]triazin-4-yl)-2-methylbenzyl)-1,2,4-oxadiazole-3-carboxamide] | > 1000 |
| CC(C)(C)c1nc(C(=O)NCc2ccc(-c3ncnn4cc(-c5ccc(CN6CCN(Cc7cccc(OC8CCC(=O)NC8=O)c7)CC6)cn5)cc34)cc2F)no1 (stereo not drawn) [Example 235, 5-(tert-butyl)-N-(4-(6-(5-((4-(3-((2,6-dioxopiperidin-3-yl)oxy)benzyl)piperazin-1-yl)methyl)pyridin-2-yl)pyrrolo[2,1-f][1,2,4]triazin-4-yl)-2-fluorobenzyl)-1,2,4-oxadiazole-3-carboxamide] | < 100 |
| Cc1cc(-c2ncnn3cc(CCCCN4CCN(c5ccc(NC6CCC(=O)NC6=O)cc5)CC4)cc23)ccc1CNC(=O)c1noc(C(C)(C)C)n1 (stereo not drawn) [Example 131, 5-tert-butyl-N-[[4-[6-[4-[4-[4-[(2,6-dioxo-3-piperidyl)amino]phenyl]piperazin-1-yl]butyl]pyrrolo[2,1-f][1,2,4]triazin-4-yl]-2-methyl-phenyl]methyl]-1,2,4-oxadiazole-3-carboxamide] | < 100 |
| Cc1cc(-c2ncnn3cc(-c4ccc(CN5CCN(c6ccc(NC7CCC(=O)NC7=O)cc6)CC5)cc4)cc23)ccc1CNC(=O)c1noc(C(C)(C)C)n1 (stereo not drawn) [Example 29, 5-tert-butyl-N-[[4-[6-[4-[[4-[4-[(2,6-dioxo-3-piperidyl)amino]phenyl]piperazin-1-yl]methyl]phenyl]pyrrolo[2,1-f][1,2,4]triazin-4-yl]-2-methyl-phenyl]methyl]-1,2,4-oxadiazole-3-carboxamide] | < 100 |
| Cc1cc(-c2ncnn3cc(-c4ccc(CN5CCC(c6ccc(NC7CCC(=O)NC7=O)nn6)CC5)cc4)cc23)ccc1CNC(=O)c1noc(C(C)(C)C)n1 (stereo not drawn) [Example 31, 5-tert-butyl-N-[[4-[6-[4-[[4-[6-[(2,6-dioxo-3-piperidyl)amino]pyridazin-3-yl]-1-piperidyl]methyl]phenyl]pyrrolo[2,1-f][1,2,4]triazin-4-yl]-2-methyl-phenyl]methyl]-1,2,4-oxadiazole-3-carboxamide] | < 100 |
| Cc1cc(-c2ncnn3cc(-c4ccc(CN5CCC(c6ccc(NC7CCC(=O)NC7=O)cc6)CC5)cc4)cc23)ccc1CNC(=O)c1cnc(C(C)(C)C)cn1 (stereo not drawn) [Example 82, 5-tert-butyl-N-[[4-[6-[4-[[4-[4-[(2,6-dioxo-3-piperidyl)amino]phenyl]-1-piperidyl]methyl]phenyl]pyrrolo[2,1-f][1,2,4]triazin-4-yl]-2-methyl-phenyl]methyl]pyrazine-2-carboxamide] | < 100 |
| Cc1cc(-c2ncnn3cc(OCCCN4CCC[C@@H](c5ccc6c(N7CCC(=O)NC7=O)nn(C)c6c5)C4)cc23)ccc1CNC(=O)c1noc(C(C)(C)C)n1 (single isomer, unassigned) [Example 292] | < 100 |
| Cc1cc(-c2ncnn3cc(-c4ccc5c(c4)CN(CCCc4ccc(NC6CCC(=O)NC6=O)cc4)C5)cc23)ccc1CNC(=O)c1noc(C(C)(C)C)n1 (stereo not drawn) [Example 57, 5-tert-butyl-N-[[4-[6-[2-[3-[4-[(2,6-dioxo-3-piperidyl)amino]phenyl]propyl]isoindolin-5-yl]pyrrolo[2,1-f][1,2,4]triazin-4-yl]-2-methyl-phenyl]methyl]-1,2,4-oxadiazole-3-carboxamide] | < 100 |
| Cc1cc(-c2ncnn3cc(-c4ccc(CN5CCC(c6ncc(NC7CCC(=O)NC7=O)cn6)CC5)cc4)cc23)ccc1CNC(=O)c1noc(C(C)(C)C)n1 (stereo not drawn) [Example 14, 5-tert-butyl-N-[[4-[6-[4-[[4-[5-[(2,6-dioxo-3-piperidyl)amino]pyrimidin-2-yl]-1-piperidyl]methyl]phenyl]pyrrolo [2,1-f][1,2,4]triazin-4-yl]-2-methyl-phenyl]methyl]-1,2,4-oxadiazole-3-carboxamide] | < 100 |
